# Assay results from patent US7868005B2, “Pyrazinyl substituted piperazine-piperidines with CXCR3 antagonist activity” (Schering Corporation, priority 2005, dated 2011).
# Biological target: T1, human CXCR3 (N-delta 4) (Homo sapiens, UniProt P49682)
# T1 construct: CD8 leader (N); Flag; expressed in transfected cells; membranes prepared
# T1 sequence (P49682 5-368 limits assumed): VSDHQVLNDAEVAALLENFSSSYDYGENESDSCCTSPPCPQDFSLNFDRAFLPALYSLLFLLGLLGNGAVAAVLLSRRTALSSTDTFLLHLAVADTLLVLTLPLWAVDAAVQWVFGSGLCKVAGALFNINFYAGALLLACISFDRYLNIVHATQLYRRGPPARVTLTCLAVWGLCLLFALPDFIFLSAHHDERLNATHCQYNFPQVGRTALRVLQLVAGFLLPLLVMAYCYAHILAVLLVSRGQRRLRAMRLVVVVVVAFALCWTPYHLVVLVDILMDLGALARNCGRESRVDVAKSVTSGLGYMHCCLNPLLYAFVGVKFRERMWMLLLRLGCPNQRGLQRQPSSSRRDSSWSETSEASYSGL
# Test: Human CXCR3 (N-delta 4) Scintillation Proximity Assay (SPA), [125I] IP-10 binding to Ba/F3-hCXCR3 membranes
# Settings: IC50 rating, Table 1; read-out: IC50
row,SMILES,IC50 [nM]
1,CC[C@H]1CN(c2nc(N)c(C(=O)NCCO)nc2Cl)CCN1C1CCN(Cc2ccc(Cl)cc2N2CC[C@@H](O)C2)CC1 [compound 141],< 25
2,CC[C@H]1CN(c2nc(N)c(C(=O)NCCO)nc2Cl)CCN1C1CCN(Cc2cc(F)c(Cl)cc2OCCOC)CC1 [compound 143],< 25
3,CC[C@H]1CN(c2nc(N)c(C(=O)NCCO)nc2Cl)CCN1C1CCN(Cc2ccc(Cl)cc2C(C)(C)O)CC1 [compound 145],< 25
4,CC[C@H]1CN(c2nc(N)c(C(=O)NCCO)nc2Cl)CCN1C1CCN(Cc2ccc(Cl)cc2OCCNS(=O)(=O)N(C)C)CC1 [compound 147],< 25
5,CC[C@H]1CN(c2nc(N)c(C(=O)NCCO)nc2Cl)CCN1C1CCN(Cc2ccc(Cl)cc2OCC(N)=O)CC1 [compound 149],< 25
6,CC[C@H]1CN(c2nc(N)c(C(=O)NCCO)nc2Cl)CCN1C1CCN(Cc2ccc(Cl)cc2C(=N)NC)CC1 [compound 151],< 25
7,CC[C@H]1CN(c2nc(N)c(C(=O)NCCO)nc2Cl)CCN1C1CCN(Cc2ccc(OC)cc2O)CC1 [compound 152],< 25
8,CC[C@H]1CN(c2nc(N)c(C(=O)NCCO)nc2Cl)CCN1C1CCN(Cc2ccc(-c3csnn3)cc2)CC1 [compound 154],< 25
9,CC[C@H]1CN(c2nc(N)c(C(=O)NCCO)nc2Cl)CCN1C1CCN(Cc2ccc(Cl)c(F)c2O)CC1 [compound 155],< 25
10,CC[C@H]1CN(c2nc(N)c(C(=O)NCCO)nc2Cl)CCN1C1CCN(Cc2ccc(Cl)cc2NC(N)=O)CC1 [compound 156],< 25
11,CCNC(=O)Nc1cc(Cl)ccc1CN1CCC(N2CCN(c3nc(N)c(C(=O)NCCO)nc3Cl)C[C@@H]2CC)CC1 [compound 157],< 25
12,CC[C@H]1CN(c2nc(N)c(C(=O)NCCO)nc2Cl)CCN1C1CCN(Cc2ccc(F)cc2F)CC1 [compound 158],< 25
13,CC[C@H]1CN(c2nc(N)c(C(=O)NCCO)nc2Cl)CCN1C1CCN(Cc2cc(F)c(Cl)cc2O)CC1 [compound 159],< 25
14,CC[C@H]1CN(c2nc(N)c(C(=O)NCCO)nc2Cl)CCN1C1CCN(Cc2ccc(Cl)cc2-c2nnn[nH]2)CC1 [compound 161],< 25
15,CC[C@H]1CN(c2nc(N)c(C(=O)NCCO)nc2Cl)CCN1C1CCN(Cc2ccc(Oc3ccc(F)cc3)cc2)CC1 [compound 162],< 25
16,CC[C@H]1CN(c2nc(N)c(C(=O)NCCO)nc2Cl)CCN1C1CCN(Cc2ccc(Cl)cc2C(=O)O)CC1 [compound 164],< 25
17,CC[C@H]1CN(c2nc(N)c(C(=O)NCCO)nc2Cl)CCN1C1CCN(Cc2cc(F)c(Cl)cc2OCCNS(C)(=O)=O)CC1 [compound 165],< 25
18,CC[C@H]1CN(c2nc(N)c(C(=O)NCCO)nc2Cl)CCN1C1CCN(Cc2ccc(OC(F)(F)F)cc2O)CC1 [compound 166],< 25
19,CC[C@H]1CN(c2nc(N)c(C(=O)NCCO)nc2Cl)CCN1C1CCN(Cc2ccc(Cl)cc2C2=NCCN2)CC1 [compound 167],< 25
20,CC[C@H]1CN(c2nc(N)c(C(=O)NCCO)nc2Cl)CCN1C1CCN(Cc2ccc(OC(F)(F)F)cc2OCCO)CC1 [compound 168],< 25
21,CC[C@H]1CN(c2nc(N)c(C(=O)NCCO)nc2Cl)CCN1C1CCN(Cc2ccc(Cl)cc2OCCCO)CC1 [compound 169],< 25
22,CC[C@H]1CN(c2nc(N)c(C(=O)NCCO)nc2Cl)CCN1C1CCN(Cc2ccc(Cl)cc2-c2cnc(N)nc2)CC1 [compound 171],< 25
23,CC[C@H]1CN(c2nc(N)c(C(=O)NCCO)nc2Cl)CCN1C1CCN(Cc2ccc(F)c(F)c2N2CC[C@H](O)C2)CC1 [compound 172],< 25
24,CC[C@H]1CN(c2nc(N)c(C(=O)NCCO)nc2Cl)CCN1C1CCN(Cc2ccc(OC(F)(F)F)cc2OCC(N)=O)CC1 [compound 174],< 25
25,CC[C@H]1CN(c2nc(N)c(C(=O)NCCO)nc2Cl)CCN1C1CCN(Cc2ccc(Cl)cc2C(=O)NCCO)CC1 [compound 176],< 25
26,CC[C@H]1CN(c2nc(N)c(C(=O)NCCO)nc2Cl)CCN1C1CCN(Cc2ccc(F)c(F)c2O)CC1 [compound 178],25 to 100
27,CC[C@H]1CN(c2nc(N)c(C(=O)NCCO)nc2Cl)CCN1C1CCN(Cc2cc(F)c(F)c(F)c2O)CC1 [compound 181],25 to 100
28,CC[C@H]1CN(c2nc(N)c(C(=O)NCCO)nc2Cl)CCN1C1CCN(Cc2ccc(F)c(F)c2N2CCOCC2)CC1 [compound 183],25 to 100
29,CC[C@H]1CN(c2nc(N)c(C(=O)NCCO)nc2Cl)CCN1C1CCN(Cc2c(O)cc(Cl)cc2Cl)CC1 [compound 186],25 to 100

# Other lines, results leading:
row,IC50 [nM],SMILES
1,< 25,CC[C@H]1CN(c2nc(N)c(C(=O)NCCO)nc2Cl)CCN1C1CCN(Cc2ccc(Cl)cc2C(=O)OC)CC1 [compound 142]
2,< 25,CC[C@H]1CN(c2nc(N)c(C(=O)NCCO)nc2Cl)CCN1C1CCN(Cc2ccc(C#CC(C)(C)O)cc2)CC1 [compound 144]
3,< 25,CC[C@H]1CN(c2nc(N)c(C(=O)NCCO)nc2Cl)CCN1C1CCN(Cc2ccc(C#N)cc2OCC(=O)NCCO)CC1 [compound 146]
4,< 25,CCNC(=O)NCCC(c1ccc(Cl)cc1)N1CCC(N2CCN(c3nc(N)c(C(=O)NCCO)nc3Cl)C[C@@H]2CC)CC1 (some centres unmarked) [compound 148]
5,< 25,CC[C@H]1CN(c2nc(N)c(C(=O)NCCO)nc2Cl)CCN1C1CCN([C@@H](C(=O)OC)c2ccc(Cl)cc2)CC1 [compound 150]
6,< 25,CC[C@H]1CN(c2nc(N)c(C(=O)NCCO)nc2Cl)CCN1C1CCN([C@H](CO)c2ccc(C#N)cc2)CC1 [compound 153]
7,< 25,CC[C@H]1CN(c2nc(N)c(C(=O)NCCO)nc2Cl)CCN1C1CCN(Cc2ccc(Cl)cc2C(=O)NC)CC1 [compound 160]
8,< 25,CC[C@H]1CN(c2nc(N)c(C(=O)NCCO)nc2Cl)CCN1C1CCN(Cc2ccc(C#N)cc2OCCOC)CC1 [compound 163]
9,< 25,CC[C@H]1CN(c2nc(N)c(C(=O)NCCO)nc2Cl)CCN1C1CCN(C(CCO)c2ccc(Cl)cc2)CC1 (some centres unmarked) [compound 170]
10,< 25,CC[C@H]1CN(c2nc(N)c(C(=O)NCCO)nc2Cl)CCN1C1CCN(Cc2ccc(C#N)cc2OCCO)CC1 [compound 173]
11,< 25,CC[C@H]1CN(c2nc(N)c(C(=O)NCCO)nc2Cl)CCN1C1CCN([C@@H](C(=O)OC)c2ccc(C#N)cc2)CC1 [compound 175]
12,25 to 100,CC[C@H]1CN(c2nc(N)c(C(=O)NCCO)nc2Cl)CCN1C1CCN([C@@H](C(=O)O)c2ccc(Cl)cc2)CC1 [compound 177]
13,25 to 100,CC[C@H]1CN(c2nc(N)c(C(=O)NCCO)nc2Cl)CCN1C1CCN(C(CCNC(C)=O)c2ccc(Cl)cc2)CC1 (some centres unmarked) [compound 179]
14,25 to 100,CC[C@H]1CN(c2nc(N)c(C(=O)NCCO)nc2Cl)CCN1C1CCN(Cc2ccc(C#N)cc2O)CC1 [compound 180]
15,25 to 100,CC[C@H]1CN(c2nc(N)c(C(=O)NCCO)nc2Cl)CCN1C1CCN([C@H](CO)c2ccc(F)c(F)c2)CC1 [compound 182]
16,25 to 100,CC[C@H]1CN(c2nc(N)c(C(=O)NCCO)nc2Cl)CCN1C1CCN(C(C(=O)O)c2ccc(Cl)cc2)CC1 (some centres unmarked) [compound 184]
17,25 to 100,CC[C@H]1CN(c2nc(N)c(C(=O)NCCO)nc2Cl)CCN1C1CCN([C@@H](C(=O)OC)c2ccc(F)c(F)c2)CC1 [compound 185]
18,25 to 100,CC[C@H]1CN(c2nc(N)c(C(=O)NCCO)nc2Cl)CCN1C1CCN(C(CCOC)c2ccc(Cl)cc2)CC1 (some centres unmarked) [compound 187]
